Measurements from ChEMBL document CHEMBL1130994, “3-trifluoromethylcarbacephems: synthesis of broad spectrum antibacterial compounds” (1998).
Values after ≈ are worked out from the molar mass of the structure shown.

Assays:
Haemophilus influenzae [1] = test: Compound was evaluated for inhibitory activity against C.L Haemophilus influenzae ampicillin sensitive; type: functional
Staphylococcus aureus [2] = test: Compound was evaluated for inhibitory activity against X1.1 Staphylococcus aureus penicillin sensitive; type: functional
Acinetobacter [3] = test: Compound was evaluated for inhibitory activity against AC12 Acinetobacter; type: functional
Providencia rettgeri [4] = test: Compound was evaluated for inhibitory activity against C24 Providencia rettgeri; type: functional
Escherichia coli [5] = test: Compound was evaluated for inhibitory activity against TEM Escherichia coli beta-lactamase; type: functional
Klebsiella pneumoniae [6] = test: Compound was evaluated for inhibitory activity against X26 Klebsiella pneumoniae; type: functional
Citrobacter [7] = test: Compound was evaluated for inhibitory activity against CF17 Citrobacter; type: functional
Staphylococcus aureus [8] = test: Compound was evaluated for inhibitory activity against X400S Staphylococcus aureus methicillin resistant and macrolide resistant; type: functional
Streptococcus pyogenes [9] = test: Compound was evaluated for inhibitory activity against C203 Streptococcus pyogenes Gp.A; type: functional
Escherichia coli [10] = test: Compound was evaluated for inhibitory activity against EC14 Escherichia coli sensitive; type: functional
Enterobacter cloacae [11] = test: Compound was evaluated for inhibitory activity against 265a Enterobacter cloacae beta-lactamase; type: functional
Klebsiella aerogenes [12] = test: Compound was evaluated for inhibitory activity against C32 Enterobacter aerogenes; type: functional
Enterococcus faecalis [13] = test: Compound was evaluated for inhibitory activity against 2041 Enterococcus faecalis Gp.D streptococcus penicillin susceptible; type: functional
Serratia [14] = test: Compound was evaluated for inhibitory activity against X99 Serratia; type: functional
Enterobacter cloacae [15] = test: Compound was evaluated for inhibitory activity against EB5 Enterobacter cloacae; type: functional
Klebsiella pneumoniae [16] = test: Compound was evaluated for inhibitory activity against KAE Klebsiella pneumoniae; type: functional
Klebsiella aerogenes [17] = test: Compound was evaluated for inhibitory activity against EB17 Enterobacter aerogenes; type: functional
Providencia stuartii [18] = test: Compound was evaluated for inhibitory activity against PR33 Providencia stuartii; type: functional
Staphylococcus aureus [19] = test: Compound was evaluated for inhibitory activity against S13E Staphylococcus aureus methicillin resistant penicillin resistant macrolide sensitive (PBP2a producer); type: functional
Salmonella [20] = test: Compound was evaluated for minimum inhibitory concentration against X514 Salmonella; type: functional
Streptococcus pneumoniae [21] = test: Compound was evaluated for inhibitory activity against Park S Streptococcus pneumoniae; type: functional
Serratia [22] = test: Compound was evaluated for inhibitory activity against SE3 Serratia; type: functional
Haemophilus influenzae [23] = test: Compound was evaluated for inhibitory activity against 76 Haemophilus influenzae beta-lactamase; type: functional
Morganella morganii [24] = test: Compound was evaluated for inhibitory activity against PR15 Morganella morganii; type: functional
Salmonella [25] = test: Compound was evaluated for inhibitory activity against X514 Salmonella; type: functional
Enterococcus faecalis [26] = test: Compound was evaluated penicillin susceptible; type: functional
Morganella morganii [27] = test: Compound was evaluated for minimum inhibitory concentration against PR15 Morganella morganii; type: functional
Serratia [28] = test: Compound was evaluated for minimum inhibitory concentration against X99 Serratia; type: functional
Providencia rettgeri [29] = test: Compound was evaluated for minimum inhibitory concentration against C24 Providencia rettgeri; type: functional
Providencia stuartii [30] = test: Compound was evaluated for minimum inhibitory concentration against PR33 Providencia stuartii; type: functional
Serratia [31] = test: Compound was evaluated for minimum inhibitory concentration against SE3 Serratia; type: functional
Acinetobacter [32] = test: Compound was evaluated for minimum inhibitory concentration against AC12 Acinetobacter; type: functional
Citrobacter [33] = test: Compound was evaluated for minimum inhibitory concentration against CF17 Citrobacter; type: functional
Streptococcus pneumoniae [34] = test: Compound was evaluated for inhibitory activity against Park S Streptococcus pneumoniae; No growth; type: functional, organism-based
Streptococcus pyogenes [35] = test: Compound was evaluated for inhibitory activity against C203 Streptococcus pyogenes Gp.A; No growth; type: functional, organism-based
Streptococcus pneumoniae [36] = test: 32 Compound was evaluated for inhibitory activity against Park S Streptococcus pneumoniae; type: functional

Row | SMILES | MIC (Haemophilus influenzae [1]) [µM] | MIC (Staphylococcus aureus [2]) [µM] | MIC (Acinetobacter [3]) [µM] | MIC (Providencia rettgeri [4]) [µM] | MIC (Escherichia coli [5]) [µM] | MIC (Klebsiella pneumoniae [6]) [µM] | MIC (Citrobacter [7]) [µM] | MIC (Staphylococcus aureus [8]) [µM] | MIC (Streptococcus pyogenes [9]) [µM] | MIC (Escherichia coli [10]) [µM] | MIC (Enterobacter cloacae [11]) [µM] | MIC (Klebsiella aerogenes [12]) [µM] | MIC (Serratia [14]) [µM] | MIC (Enterobacter cloacae [15]) [µM] | MIC (Klebsiella pneumoniae [16]) [µM] | MIC (Klebsiella aerogenes [17]) [µM] | MIC (Providencia stuartii [18]) [µM] | MIC (Staphylococcus aureus [19]) [µM] | MIC (Serratia [22]) [µM] | MIC (Haemophilus influenzae [23]) [µM] | also measured
1 | N[C@@H](C(=O)N[C@@H]1C(=O)N2C(C(=O)O)=C(C(F)(F)F)CC[C@H]12)c1ccc(F)cc1 | 0.5 (≈ 0.201 µg/mL) | 1 (≈ 0.401 µg/mL) | 64 (≈ 25.7 µg/mL) | 8 (≈ 3.21 µg/mL) | 1 (≈ 0.401 µg/mL) | 0.5 (≈ 0.201 µg/mL) | 8 (≈ 3.21 µg/mL) | 64 (≈ 25.7 µg/mL) | 0.06 (≈ 0.0241 µg/mL) | 1 (≈ 0.401 µg/mL) | 8 (≈ 3.21 µg/mL) | 8 (≈ 3.21 µg/mL) | 16 (≈ 6.42 µg/mL) | 8 (≈ 3.21 µg/mL) | 8 (≈ 3.21 µg/mL) | 8 (≈ 3.21 µg/mL) | 8 (≈ 3.21 µg/mL) | 32 (≈ 12.8 µg/mL) | 32 (≈ 12.8 µg/mL) | 1 (≈ 0.401 µg/mL) | MIC (Enterococcus faecalis [13]): 32 µM (≈ 12.8 µg/mL); MIC (Salmonella [20]): 0.5 µM (≈ 0.201 µg/mL); MIC (Streptococcus pneumoniae [21]): 0.25 µM (≈ 0.1 µg/mL); MIC (Morganella morganii [24]): 16 µM (≈ 6.42 µg/mL)
2 | N[C@@H](C(=O)N[C@@H]1C(=O)N2C(C(=O)O)=C(C(F)(F)F)CC[C@H]12)c1ccc(O)cc1 | 0.5 (≈ 0.2 µg/mL) | 0.5 (≈ 0.2 µg/mL) | 16 (≈ 6.39 µg/mL) | 4 (≈ 1.6 µg/mL) | 0.5 (≈ 0.2 µg/mL) | 0.06 (≈ 0.024 µg/mL) | 4 (≈ 1.6 µg/mL) | 64 (≈ 25.6 µg/mL) | 0.06 (≈ 0.024 µg/mL) | 0.25 (≈ 0.0998 µg/mL) | 1 (≈ 0.399 µg/mL) | 0.25 (≈ 0.0998 µg/mL) | 2 (≈ 0.799 µg/mL) | 1 (≈ 0.399 µg/mL) | 1 (≈ 0.399 µg/mL) | 0.5 (≈ 0.2 µg/mL) | 1 (≈ 0.399 µg/mL) | 32 (≈ 12.8 µg/mL) | 16 (≈ 6.39 µg/mL) | 0.5 (≈ 0.2 µg/mL) | MIC (Salmonella [25]): 0.06 µM (≈ 0.024 µg/mL); MIC (Enterococcus faecalis [26]): 32 µM (≈ 12.8 µg/mL); MIC (Streptococcus pneumoniae [21]): 0.25 µM (≈ 0.0998 µg/mL); MIC (Morganella morganii [24]): 16 µM (≈ 6.39 µg/mL)
3 | Cc1ccc([C@@H](N)C(=O)N[C@@H]2C(=O)N3C(C(=O)O)=C(C(F)(F)F)CC[C@H]23)cc1 | 2 (≈ 0.795 µg/mL) | 1 (≈ 0.397 µg/mL) |  |  | 4 (≈ 1.59 µg/mL) | 0.5 (≈ 0.199 µg/mL) |  | 4 (≈ 1.59 µg/mL) | 0.06 (≈ 0.0238 µg/mL) | 2 (≈ 0.795 µg/mL) | 32 (≈ 12.7 µg/mL) | 8 (≈ 3.18 µg/mL) |  | 16 (≈ 6.36 µg/mL) | 8 (≈ 3.18 µg/mL) | 8 (≈ 3.18 µg/mL) |  | 4 (≈ 1.59 µg/mL) |  | 4 (≈ 1.59 µg/mL) | MIC (Morganella morganii [27]): 8 µM (≈ 3.18 µg/mL); MIC (Serratia [28]): 16 µM (≈ 6.36 µg/mL); MIC (Providencia rettgeri [29]): 16 µM (≈ 6.36 µg/mL); MIC (Providencia stuartii [30]): 16 µM (≈ 6.36 µg/mL); MIC (Enterococcus faecalis [13]): 8 µM (≈ 3.18 µg/mL); MIC (Serratia [31]): 64 µM (≈ 25.4 µg/mL); MIC (Acinetobacter [32]): 16 µM (≈ 6.36 µg/mL); MIC (Citrobacter [33]): 16 µM (≈ 6.36 µg/mL); MIC (Salmonella [20]): 4 µM (≈ 1.59 µg/mL); MIC (Streptococcus pneumoniae [21]): 0.13 µM (≈ 0.0517 µg/mL)
4 | CCS(=O)(=O)Nc1cccc([C@@H](N)C(=O)N[C@@H]2C(=O)N3C(C(=O)O)=C(C(F)(F)F)CC[C@H]23)c1 | 1 (≈ 0.49 µg/mL) | 4 (≈ 1.96 µg/mL) | 64 (≈ 31.4 µg/mL) | 32 (≈ 15.7 µg/mL) | 1 (≈ 0.49 µg/mL) | 0.25 (≈ 0.123 µg/mL) | 32 (≈ 15.7 µg/mL) | 32 (≈ 15.7 µg/mL) | 0.06 (≈ 0.0294 µg/mL) | 1 (≈ 0.49 µg/mL) | 32 (≈ 15.7 µg/mL) | 16 (≈ 7.85 µg/mL) | 64 (≈ 31.4 µg/mL) | 32 (≈ 15.7 µg/mL) | 32 (≈ 15.7 µg/mL) | 16 (≈ 7.85 µg/mL) | 16 (≈ 7.85 µg/mL) | 32 (≈ 15.7 µg/mL) | 128 (≈ 62.8 µg/mL) | 4 (≈ 1.96 µg/mL) | MIC (Salmonella [25]): 1 µM (≈ 0.49 µg/mL); MIC (Enterococcus faecalis [26]): 32 µM (≈ 15.7 µg/mL); MIC (Streptococcus pneumoniae [21]): 0.13 µM (≈ 0.0638 µg/mL); MIC (Morganella morganii [24]): 16 µM (≈ 7.85 µg/mL)
5 | Nc1ccc([C@@H](N)C(=O)N[C@@H]2C(=O)N3C(C(=O)O)=C(C(F)(F)F)CC[C@H]23)cc1 | 1 (≈ 0.398 µg/mL) | 2 (≈ 0.797 µg/mL) | 64 (≈ 25.5 µg/mL) | 16 (≈ 6.37 µg/mL) | 1 (≈ 0.398 µg/mL) | 0.5 (≈ 0.199 µg/mL) | 16 (≈ 6.37 µg/mL) | 64 (≈ 25.5 µg/mL) |  | 0.5 (≈ 0.199 µg/mL) | 32 (≈ 12.7 µg/mL) | 8 (≈ 3.19 µg/mL) | 16 (≈ 6.37 µg/mL) | 16 (≈ 6.37 µg/mL) | 16 (≈ 6.37 µg/mL) | 4 (≈ 1.59 µg/mL) | 32 (≈ 12.7 µg/mL) | 64 (≈ 25.5 µg/mL) | 32 (≈ 12.7 µg/mL) | 1 (≈ 0.398 µg/mL) | MIC (Salmonella [25]): 0.25 µM (≈ 0.0996 µg/mL); MIC (Streptococcus pneumoniae [34]): No growth; MIC (Streptococcus pyogenes [35]): No growth; MIC (Enterococcus faecalis [13]): 16 µM (≈ 6.37 µg/mL); MIC (Morganella morganii [24]): 8 µM (≈ 3.19 µg/mL)
6 | N[C@@H](C(=O)N[C@@H]1C(=O)N2C(C(=O)O)=C(C(F)(F)F)CC[C@H]12)c1cccc(F)c1 | 2 (≈ 0.803 µg/mL) | 2 (≈ 0.803 µg/mL) | 32 (≈ 12.8 µg/mL) | 16 (≈ 6.42 µg/mL) | 2 (≈ 0.803 µg/mL) | 2 (≈ 0.803 µg/mL) | 16 (≈ 6.42 µg/mL) | 64 (≈ 25.7 µg/mL) | 0.06 (≈ 0.0241 µg/mL) | 4 (≈ 1.61 µg/mL) | 32 (≈ 12.8 µg/mL) | 16 (≈ 6.42 µg/mL) | 32 (≈ 12.8 µg/mL) | 16 (≈ 6.42 µg/mL) | 16 (≈ 6.42 µg/mL) | 8 (≈ 3.21 µg/mL) | 16 (≈ 6.42 µg/mL) | 32 (≈ 12.8 µg/mL) | 64 (≈ 25.7 µg/mL) | 2 (≈ 0.803 µg/mL) | MIC (Salmonella [25]): 2 µM (≈ 0.803 µg/mL); MIC (Enterococcus faecalis [13]): 32 µM (≈ 12.8 µg/mL); MIC (Streptococcus pneumoniae [36]): 0.25 µM (≈ 0.1 µg/mL); MIC (Morganella morganii [24]): 32 µM (≈ 12.8 µg/mL)
